Test results as given in PMC5955586, “Transport of enniatin B and enniatin B1 across the blood-brain barrier and hints for neurotoxic effects in cerebral cells” (PLoS ONE, 2018).
Values joined by “and” are separate entries in the source; they are usually repeats but may differ in a detail not shown here. Equal entries are not always repeated. Where two headings read alike, the source gives them in different places.

Assays:
[1] = system: HBMEC; assay: CCK-8 viability assay in HBMEC; type: cell-based, human; settings: 0.1 μM to 10 μM, 48 h
Description: To test the viability and to define the working range for later transport studies ENN B/ENN B1 stock solutions in ACN were diluted to the respective concentrations with serum free culture medium (1% ACN). An astrocytoma cell line, CCF-STTG1 (ATCC, Manassas, USA), and HBMEC cell line (human brain microvascular endothelial cells, kindly provided by Prof. Dr. Karch, Institute of Hygiene, University of Muenster (WWU Muenster)) were cultivated in RPMI 1640 medium supplemented with 100 U/mL penicillin, 100 μg/mL streptomycin, 2 mM L-glutamine and 10% (v/v) fetal calf serum (FCS) (medium for HBMEC additionally supplemented with 1 mM Na-pyruvate) using standardized culture conditions (37°C, 5% CO2, saturated humidified atmosphere). Culture medium was changed every 2–3 d, and the cells were subcultivated after trypsination when they reached a microscopic confluence of approximately 80%. […]
Briefly, the cells were seeded in 96-well tissue culture plates in a density of 1 × 10^4 cells/well (CCF-STTG1) and 4 × 10^3 cells/well (HBMEC), respectively. […] WST-8 dye is reduced to a water-soluble formazan by cellular dehydrogenases of viable cells, which increases the absorbance at λ = 457 nm and was measured with an Infinite M200 PRO microplate reader with Tecan i-control software version 1.7.1.12 (Tecan, Crailsheim, Germany). […]

[2] = Transfer across PBCEC monolayer on Transwell filters (BBB model); type: in vitro ADME, porcine; settings: pig; apical to basolateral, 1 μM apical application (passive transport); read-out: Permeability coefficient
Description: (§1) In accordance with the thawing and seeding procedure for PBCEC, described for the viability test, 500 μL PBCEC suspension (2.5 × 10^5 cells/well) in culture medium were seeded on rat tail collagen coated 12-well Transwell® microporous polycarbonate filter inserts (Corning, Wiesbaden, Germany; growth area 1.12 cm^2, pore size 0.4 μm) in the upper (apical) compartment of the filter system. The lower (basolateral) compartment was filled with 1500 μL complete medium. This two-compartment system was used as model system for the BBB with the apical compartment reflecting the “blood”-side and the basolateral compartment serving as the “brain”-side. After 48 h, the complete medium was replaced by serum free medium. Additionally, 550 nM hydrocortisone (Sigma-Aldrich, Steinheim, Germany) was supplemented to urge differentiation of cells. After another 48 h, experiments studying barrier integrity and permeability were performed.
(§2) Before starting each experiment, the TEER values and the electrical capacitance of all cell layers were measured via cellular impedance spectroscopy (cellZscope®, nanoAnalytics, Münster, Germany). […] TEER values relate to the constitution of the tight junctions limiting paracellular transfer of compounds. In addition to the TEER, electrical capacitances (CCl) were monitored for 48 h. Cellular phospholipid bilayers act like an electrical capacitor and also contribute to the cellular impedance. Changes of the CCl value give information about the integrity of the cell monolayer. In this experiment, a parallel set up was applied. For each treatment, one triplicate of filters was monitored via cellular impedance spectroscopy over the course of 48 h using a cellZscope® device–here, the basolateral compartment was prepared with 1650 μL serum free medium and the volume in the apical compartment was filled to 760 μL (ratio 1:2.17). Another triplicate for the same incubation conditions was kept in Transwell® filter cell culture multiple well plates (12 well format) over the course of 48 h. In the multiple well plates the ratio between the apical and the basolateral compartment was 1:3, therefore the starting volume in the apical compartment is 500 μL and 1500 μL in the basolateral compartment. Here, samples for quantitation of transfer of enniatins across the barrier were drawn after 1, 2.5, 6.5, 18, 24, 28, 42 and 48 hours in this given ratio i.e. 30 μL apical and 90 μL basolateral. After 48 h, the final TEER values of the filters from the multiple well plate were measured to ensure the stability of the cell layer throughout the experiment. To double check the integrity of the barrier, lucifer yellow (LY, 50 μM), as a paracellular transfer marker, was applied. The amount of LY found in the basolateral compartment after 1 h was measured at λex = 430 nm and λ em = 540 nm.
(§3) After the completion of the experiment, the polycarbonate filter membranes were extracted. The filters were cut out and extracted with ACN/H2O (8+2, v/v) via ultrasonication for 1 h. The extract was evaporated (vacuum concentrator BA-VC-200 H, Bachofer GmbH + Co KG, Reutlingen, Germany) and reconstituted in 200 μL of ACN/H2O (8+2, v/v). The obtained samples and filter extracts were analyzed and quantitated with high performance liquid chromatography-tandem mass spectrometry (HPLC-MS/MS).
(§4) The quantitation of ENN B and ENN B1 by HPLC-MS/MS was carried out using an 1100 series (Agilent Technologies, Santa Clara, USA) high performance liquid chromatography (HPLC) system and API 3200 (AB SCIEX Germany GmbH, Darmstadt, Germany) mass spectrometer. Both devices were operated with Analyst Version 1.6.2 software (AB SCIEX Germany GmbH, Darmstadt, Germany). A Synergi 4 μm Fusion-RP 80 Å 50 × 2.0 mm (Phenomenex) equipped with a Synergy 4 μm Fusion-RP 4 × 2.0 mm (Phenomenex) precolumn was used and maintained at 40°C. A binary gradient consisting of ACN (A) and water (B) (both containing 0.1% formic acid) was applied. […]

[3] = system: PBCEC monolayer; assay: as above; type: in vitro ADME, porcine; settings: for active transport: 200 nM equimolar on both sides; for amount of apically applied compound found in basolateral compartment: after 6.5 h; for amount in filter membrane with attached PBCEC relative to applied amount: extraction after 48 h
Description: as §1, §2, §3, §4

[4] = set-up: method as in PMID 23598119; settings: oral intake 0.05 mg/kg b.w.; cited from earlier work
[5] = system: HepG2; set-up: method as in PMID 21640785; settings: cited from earlier work
[6] = system: Caco-2 cells; set-up: method as in PMID 21640785; settings: cited from earlier work

Structure (SMILES) | effect on viability compared to solvent control [1] | Papp A→B at 1 μM [2] [×10⁻⁶ cm/s] | active transport [3] | amount transferred to basolateral compartment ([3]; 1 μM (0.5 nmol) apical, 6.5 h to 48 h) | amount of apically applied compound found in basolateral compartment ([3]; 1 μM (0.5 nmol) apical) [%] | amount in filter membrane with attached PBCEC relative to applied amount [3] | concentration in pig plasma [4] | IC50 ([5]; read-out: IC50) [µM] | IC50 ([6]; read-out: IC50) [µM] | plateau of amount in basolateral compartment ([3]; 1 μM (0.5 nmol) apical) [%] | IC50 [5] | IC50 [6]
CC[C@H](C)[C@H]1C(=O)O[C@H](C(C)C)C(=O)N(C)[C@@H](C(C)C)C(=O)O[C@H](C(C)C)C(=O)N(C)[C@@H](C(C)C)C(=O)O[C@H](C(C)C)C(=O)N1C [ENN B1, enniatin B1] | no effect on viability | 14.6 | minor enrichment in the apical compartment | up to 55% | 44 | 2.7% | 0.035 μg/mL and 0.054 μM | 8.5 | 11.5 |  |  | 
CC(C)[C@H]1C(=O)O[C@H](C(C)C)C(=O)N(C)[C@@H](C(C)C)C(=O)O[C@H](C(C)C)C(=O)N(C)[C@@H](C(C)C)C(=O)O[C@H](C(C)C)C(=O)N1C [ENN B, enniatin B] | no effect on viability | 14.9 | minor enrichment in the apical compartment |  | 53 | below 1% | 0.073 μg/mL and 0.114 μM |  |  | 70 ± 4 | no IC50 could be calculated | no IC50 could be calculated
